This is an account of results in PMC10424242, “Macrocyclic Peptidomimetic Plasmepsin X Inhibitors with Potent In Vitro and In Vivo Antimalarial Activity” (Journal of Medicinal Chemistry, 2023).

Entries after “also recorded” stand apart in the source; their conditions may differ. Read-outs that look alike come from different tables or passages of the source.

Series [1] concerns the target recombinant P. falciparum PMX (Plasmodium falciparum, UniProt Q8IAS0). Kind of series: Recombinant P. falciparum PMX inhibition assay (fluorogenic substrate Rh2N). The format is biochemical. On the procedure: The fluorescence of this peptide is quenched by the spatial proximity of the DABCYL/EDANS groups in the uncleaved peptide and is increased upon cleavage at the internal F–I bond. […] Control wells contained no inhibitor, and the plate was blanked against the substrate only in DB. […] All experiments were performed in duplicate.

The target in a further series is PMIV (Plasmodium falciparum, UniProt Q8IM16). The series is described as follows: FRET-based PMIV inhibition assay. The format is biochemical, P. falciparum. On the procedure: (§1) A fluorescence resonance energy transfer (FRET)-based assay was performed to assess the ability of the compounds to inhibit PMIV, CatD, and BACE1. Serial dilutions of test compounds were dispensed in a white 96-well plate. […] The mixture was incubated for 20 min at 37 °C. […] IC50 values were calculated with GraphPad Prism 8.0 using the nonlinear regression, variable slope (four parameters). Compounds were tested in triplicate.

For a further series, the target named is cathepsin D (CatD) (Homo sapiens, UniProt P07339). The series is described as follows: FRET-based CatD inhibition assay (selectivity counter screen). The format is biochemical. On the procedure:
as §1
On the technique in general: The purpose of a counterscreen is to sort out artefacts and off-target activity.

For the next series, the target named is BACE1 (Homo sapiens, UniProt P56817). The series is described as follows: FRET-based BACE1 inhibition assay (selectivity counter screen). The series is classed as biochemical. How it is done: as §1
Series [2] is described as follows: Liver microsomal metabolic stability. The series is classed as in vitro ADME, mouse. The following applies: pooled liver microsomes, pH 7.4, mouse liver microsomes, 5 μM; for microsomal CLint at 1 h, 5 μM: read-out: microsomal stability CL(int). On the procedure:
Microsomal stability assays are performed as described elsewhere.[41] Test compounds and pooled mouse liver microsomes are incubated in potassium phosphate buffer in the presence of the cofactor NADPH at 37 °C. Reaction mixtures (700 μL) contain a final concentration of 5 μM test compound, 0.05% DMSO, 0.5 mg/mL microsomes, and ∼0.7–0.9 mM NADPH in 100 mM potassium phosphate buffer at pH 7.4. Reactions are terminated by the addition of 100 μL of the reaction mixture to 900 μL of acetonitrile after 0, 5, 15, 30, 45, and 60 min of incubation. Samples were centrifuged, and the resultant supernatant was analyzed by ultra-performance liquid chromatography–tandem mass spectrometry (UPLC-MS/MS). The amount of remaining compound is calculated and compared to the initial amount of test compound (zero time point). Verapamil is used as a positive control, and samples prepared without cofactor NADPH are used as a negative control (0 and 60 min). The in vitro metabolic stability parameters (half-life value (t1/2) and intrinsic clearance value (Clint)) are calculated from the slope of the Ln of concentration remaining vs the time curve.
Background: Liver microsomes are vesicles of endoplasmic reticulum, rich in cytochrome P450 enzymes.

Series [3] can be described thus: Plasma protein binding (rapid equilibrium dialysis). The series is classed as in vitro ADME. The conditions noted are these: pH 7.4, mouse plasma, 2 h at 37 °C. On the procedure: Plasma protein binding was performed with rapid equilibrium dialysis (RED) device inserts containing a dialysis membrane with a molecular weight cut-off of 8000 Daltons. Inserts were placed in the single-use RED plate without prior preparation.
The test compound at a concentration of 5 μM was added to mouse plasma and dialyzed against phosphate-buffered saline (PBS, pH 7.4) for 2 h at 37 °C. Propranolol hydrochloride was used as a positive control (high PPB), and fluconazole was used as negative control (low PPB). After dialysis, the drug concentration in the buffer and plasma compartments was quantified by liquid chromatography and tandem mass spectrometry (LC-MS/MS) analysis.
For orientation: In equilibrium dialysis only unbound substance equilibrates across the membrane.

In series [4] the test system is P. falciparum Pf3D7^0087/N9. Kind of series: In vivo efficacy against P. falciparum in the TAD PfalcHuMouse model. The conditions noted are these: three times a day for 4 days at 40 mg/kg, oral; 40 mg/kg. How it is done: Therapeutic efficacy studies were performed at TAD using a standardized humanized mouse model of P. falciparum malaria[31] with modifications.[34] […] The volume of injections was 1 and 0.7 mL for i.p. or i.v. inoculation, respectively.
The inoculum was obtained from peripheral blood of CO2-euthanized donor mice harboring 5–10% parasitemia.
Before drug administration, each infected mouse was randomly assigned to its corresponding treatment. […] The treatment was administered by oral gavage with 20G straight reusable feeding needles (Fine Science Tools GmbH) at 10 mL·kgbodyweight^–1 unless otherwise stated.
Parasitemia was measured in serial 2 μL of samples of tail blood by flow cytometry and expressed as the % of parasitized erythrocytes with respect to the total erythrocytes in circulation.
The clearance of parasitized erythrocytes from the peripheral blood of mice was assessed by measuring the parasite reduction ratio (PRR) calculated as the ratio between parasitemia at Day n + 2 divided by parasitemia at Day n for each individual of the study.
The parasiticidal effect of drugs in vivo was assessed by measuring the day of recrudescence (DoR) as described.[34] In short, DoR was defined as the day at which parasitemia after drug treatment reached the % parasitemia at treatment inception. Drug-treated mice were deemed cured if there was no detectable parasitemia 60 days after treatment.

The mark [5] stands for this setting: Table 3, read-out: PMX, nM (as listed in Table 3).
Where [6] appears, read: recombinant PMX, read-out: PMX, nM (IC50).
[7] abbreviates: Table 3, read-out: PMIV, nM (as listed in Table 3).

Sequence of recombinant P. falciparum PMX (Q8IAS0 222-573): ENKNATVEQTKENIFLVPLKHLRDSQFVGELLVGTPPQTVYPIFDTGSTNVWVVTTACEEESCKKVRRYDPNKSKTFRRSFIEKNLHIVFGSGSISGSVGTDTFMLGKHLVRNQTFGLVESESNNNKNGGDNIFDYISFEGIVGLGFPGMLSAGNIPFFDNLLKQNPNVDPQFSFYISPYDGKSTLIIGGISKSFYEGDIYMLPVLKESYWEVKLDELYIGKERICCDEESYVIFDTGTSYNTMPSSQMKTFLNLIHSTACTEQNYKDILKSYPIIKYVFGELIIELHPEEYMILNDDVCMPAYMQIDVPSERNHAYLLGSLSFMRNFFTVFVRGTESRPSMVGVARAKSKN
Sequence of cathepsin D (CatD) (P07339 65-412): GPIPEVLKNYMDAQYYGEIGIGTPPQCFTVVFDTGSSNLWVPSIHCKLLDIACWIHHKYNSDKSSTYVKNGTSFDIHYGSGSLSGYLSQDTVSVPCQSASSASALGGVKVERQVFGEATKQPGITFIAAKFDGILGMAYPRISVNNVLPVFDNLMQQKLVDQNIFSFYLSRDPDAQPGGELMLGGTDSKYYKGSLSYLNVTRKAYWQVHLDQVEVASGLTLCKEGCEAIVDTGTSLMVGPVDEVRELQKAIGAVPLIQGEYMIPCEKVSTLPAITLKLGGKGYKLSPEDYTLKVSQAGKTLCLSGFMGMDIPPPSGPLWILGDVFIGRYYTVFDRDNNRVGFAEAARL
Sequence of PMIV (Q8IM16 122-449): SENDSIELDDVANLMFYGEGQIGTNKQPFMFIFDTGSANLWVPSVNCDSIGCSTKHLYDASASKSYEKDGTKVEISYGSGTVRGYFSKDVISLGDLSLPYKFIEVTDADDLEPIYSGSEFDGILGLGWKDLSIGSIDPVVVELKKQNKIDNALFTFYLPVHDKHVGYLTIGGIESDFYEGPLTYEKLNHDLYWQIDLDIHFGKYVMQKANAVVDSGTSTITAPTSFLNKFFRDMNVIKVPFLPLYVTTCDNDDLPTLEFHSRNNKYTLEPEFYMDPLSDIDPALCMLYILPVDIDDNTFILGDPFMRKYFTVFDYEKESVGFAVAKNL
Sequence of BACE1 (P56817 46-501): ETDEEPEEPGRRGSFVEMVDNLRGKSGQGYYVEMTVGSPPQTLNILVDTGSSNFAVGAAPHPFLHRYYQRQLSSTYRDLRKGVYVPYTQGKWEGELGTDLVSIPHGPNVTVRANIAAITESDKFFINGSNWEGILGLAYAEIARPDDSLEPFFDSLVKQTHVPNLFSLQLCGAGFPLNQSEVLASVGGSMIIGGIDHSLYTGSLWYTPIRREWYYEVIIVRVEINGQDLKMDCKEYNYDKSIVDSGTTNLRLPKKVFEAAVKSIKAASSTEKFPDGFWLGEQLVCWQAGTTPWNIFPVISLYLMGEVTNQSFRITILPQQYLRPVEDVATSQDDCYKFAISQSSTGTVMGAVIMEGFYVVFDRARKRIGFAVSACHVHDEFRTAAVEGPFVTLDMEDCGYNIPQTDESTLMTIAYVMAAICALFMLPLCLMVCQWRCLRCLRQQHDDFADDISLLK

What is called half-life is the time in which the quantity being followed falls by half. For orientation: fraction unbound means the share of the substance not bound to proteins or other matrix. High values mean weak binding, low ones extensive binding. On to `CCCN1CCOCCc2cccc(c2)C[C@@H]([C@H](O)CNC(C)(C)c2cccc(OC)c2)NC(=O)c2cccc(c2)C1=O` [7i, (S)-4-((R)-1-Hydroxy-2-((2-(3-methoxyphenyl)propan-2-yl)amino)ethyl)-12-propyl-9-oxa-3,12-diaza-1,6(1,3)-dibenzenacyclotridecaphane-2,13-dione], for which the IC50 in series [1] (setting [5]) amounted to 4.6 ± 0.07 nM; in series [1] (setting [6]), 4.6 ± 0.07 nM; at PMIV (setting [7]), 81 ± 4 nM; on PMIV (read-out: PMIV, nM (IC50)), 81 ± 4 nM; against cathepsin D (CatD), 1650 ± 80 nM; against BACE1, 22700 ± 1100 nM. This compound registered a half-life at 1 h, 5 μM in series [2] of 8.39 min. In addition, the microsomal CLint at 1 h, 5 μM in series [2] stood at 165 µL/min/mg. The same compound had a fraction unbound at 2 h, 5 µM in series [3] of 0.0287.
Regarding `COc1cccc(C(C)(C)NC[C@@H](O)[C@@H]2Cc3cccc(c3)OCCCCN(CC(C)(C)C)C(=O)c3cccc(c3)C(=O)N2)c1` [7e], the IC50 in series [1] amounted to 8.6 ± 2.4 nM; in series [1] (setting [6]) it was 2.5 ± 0.2 nM; on PMIV, 61 ± 4 nM; at PMIV (read-out: PMIV, nM (IC50)) it was 40 nM; at cathepsin D (CatD), 630 nM; against BACE1, 1900 ± 100 nM. In series [2], the half-life at 1 h, 5 μM was 13.7 min. In addition, the microsomal CLint at 1 h, 5 μM in series [2] amounted to 101 µL/min/mg. For the same compound, the fraction unbound at 2 h, 5 µM in series [3] is 0.0035.
`COc1cccc(C(C)(C)NC[C@@H](O)[C@@H]2Cc3cccc(c3)OCCCCNC(=O)c3cccc(c3)C(=O)N2)c1` [7b, (S)-4-((R)-1-Hydroxy-2-((2-(3-methoxyphenyl)propan-2-yl)amino)ethyl)-7-oxa-3,12-diaza-1,6(1,3)-dibenzenacyclotridecaphane-2,13-dione]: the IC50 in series [1] came out at 4.1 ± 0.3 nM; in series [1] (setting [6]), 11.2 ± 0.7 nM; on PMIV, 60 ± 3 nM; at PMIV (read-out: PMIV, nM (IC50)), 510 ± 30 nM; at cathepsin D (CatD), 650 ± 30 nM; at BACE1, 910 ± 40 nM. This compound also came in with a half-life at 1 h, 5 μM in series [2] of 31.3 min. In addition, in series [2], the microsomal CLint at 1 h, 5 μM stood at 44.3 µL/min/mg. In addition, the fraction unbound at 2 h, 5 µM in series [3] is 0.0274.
`CCCN1CCOc2cccc(c2)C[C@@H]([C@H](O)CNC(C)(C)c2cccc(OC)c2)NC(=O)c2cccc(c2)C1=O` [7h]: the IC50 in series [1] (setting [5]) was 6.8 ± 0.59 nM; in series [1] (setting [6]), 6.8 ± 0.59 nM; at PMIV (setting [7]), 200 nM; on PMIV (read-out: PMIV, nM (IC50)) it was 200 nM; at cathepsin D (CatD) it was 600 nM; at BACE1, 1850 ± 90 nM. In series [2], this compound yielded a half-life at 1 h, 5 μM of 13.9 min. In series [2], the microsomal CLint at 1 h, 5 μM was 99.8 µL/min/mg. Also, in series [3], the fraction unbound at 2 h, 5 µM was 0.0384.
On to `COc1cccc(C(C)(C)NC[C@@H](O)[C@@H]2Cc3cccc(c3)OCCCCN(CCN(C)C)C(=O)c3cccc(c3)C(=O)N2)c1` [7f, (S)-12-(2-(Dimethylamino)ethyl)-4-((R)-1-hydroxy-2-((2-(3-methoxyphenyl)propan-2-yl)amino)ethyl)-7-oxa-3,12-diaza-1,6(1,3)-dibenzenacyclotridecaphane-2,13-dione], for which the IC50 came out at 2.5 ± 0.2 nM in series [1]; 16.7 ± 1.5 nM in series [1] (setting [6]); 40 nM against PMIV; 1730 ± 90 nM at PMIV (read-out: PMIV, nM (IC50)); 6800 ± 340 nM against cathepsin D (CatD); 52400 ± 1600 nM against BACE1. Moreover, the “reduction of PMX inhibitory potency” value in series [1] (compared to analogue 7a) is on record as 4 fold. Also, the half-life at 5 μM in series [2] is over 120 min. In addition, the fraction unbound at 2 h, 5 µM in series [3] is 0.0695. Also, the “effect on parasite burden” value in series [4] was “only a weak effect on parasite burden; also recorded: measurable reduction in parasitemia”.
For the compound `COc1cccc(C(C)(C)NC[C@@H](O)[C@@H]2Cc3cccc(c3)OCCCCN(CCC(F)(F)F)C(=O)c3cccc(c3)C(=O)N2)c1` [7d, (S)-4-((R)-1-Hydroxy-2-((2-(3-methoxyphenyl)propan-2-yl)amino)ethyl)-12-(3,3,3-trifluoropropyl)-7-oxa-3,12-diaza-1,6(1,3)-dibenzenacyclotridecaphane-2,13-dione], the IC50 in series [1] turned out to be 5.3 ± 3 nM; in series [1] (setting [6]) it was 8.6 ± 2.4 nM; against PMIV, 170 ± 20 nM; on PMIV (read-out: PMIV, nM (IC50)), 61 ± 4 nM; against cathepsin D (CatD) it was 230 ± 20 nM; against BACE1, 2100 ± 100 nM. Besides, the half-life at 1 h, 5 μM in series [2] is 20.4 min. Further, the microsomal CLint at 1 h, 5 μM in series [2] was determined as 67.9 µL/min/mg. The same compound showed a fraction unbound at 2 h, 5 µM in series [3] of 0.0125.
`COc1cccc(C(C)(C)NC[C@@H](O)[C@@H]2Cc3cccc(c3)OCCCCN(C)C(=O)c3cccc(c3)C(=O)N2)c1` [7c, (S)-4-((R)-1-Hydroxy-2-((2-(3-methoxyphenyl)propan-2-yl)amino)ethyl)-12-methyl-7-oxa-3,12-diaza-1,6(1,3)-dibenzenacyclotridecaphane-2,13-dione]: the IC50 in series [1] is 11.2 ± 0.7 nM; in series [1] (setting [6]), 5.3 ± 3 nM; against PMIV it was 510 ± 30 nM; at PMIV (read-out: PMIV, nM (IC50)), 170 ± 20 nM; against cathepsin D (CatD), 320 ± 20 nM; on BACE1, 1030 ± 50 nM. The compound further displayed a half-life at 1 h, 5 μM in series [2] of 16.9 min. Moreover, the microsomal CLint at 1 h, 5 μM in series [2] worked out at 81.9 µL/min/mg. Besides, the fraction unbound at 2 h, 5 µM in series [3] was 0.0351.
For the compound `CCCN(CCC)C(=O)c1cccc(C(=O)N[C@@H](Cc2ccccc2)[C@H](O)CNC(C)(C)c2cccc(OC)c2)c1` [6a], the IC50 in series [1] (setting [6]) came out at 6.2 ± 0.3 nM. For the same compound, in series [2], the half-life at 1 h, 5 μM worked out at 6.4 min and the microsomal CLint at 1 h, 5 μM was 216 µL/min/mg. This compound gave a fraction unbound at 2 h, 5 µM in series [3] of 0.009.
In the case of `CCCN1CCCCCOc2cccc(c2)C[C@@H]([C@H](O)CNC(C)(C)c2cccc(OC)c2)NC(=O)c2cccc(c2)C1=O` [7g, (S)-4-((R)-1-Hydroxy-2-((2-(3-methoxyphenyl)propan-2-yl)amino)ethyl)-13-propyl-7-oxa-3,13-diaza-1,6(1,3)-dibenzenacyclotetradecaphane-2,14-dione], the IC50 in series [1] (setting [5]) turned out to be 6.9 ± 0.49 nM; in series [1] (setting [6]) it was 6.9 ± 0.49 nM; at PMIV (setting [7]), 190 nM; at PMIV (read-out: PMIV, nM (IC50)), 190 nM; at cathepsin D (CatD), 1200 nM; at BACE1 it was 6000 ± 300 nM. In addition, in series [2], the half-life at 1 h, 5 μM stood at 7.64 min. Also, the microsomal CLint at 1 h, 5 μM in series [2] was 181 µL/min/mg. This compound showed a free fraction (fraction unbound) at 2 h, 5 µM in series [3] of 0.0079.
